Values quoted from earlier work, collected in patent publication US20140294790A1, “METHOD OF PREVENTING, CONTROLLING AND AMELIORATING URINARY TRACT INFECTIONS AND SUPPORTING DIGESTIVE HEALTH BY USING A SYNERGISTIC CRANBERRY DERIVATIVE, A D-MANNOSE COMPOSITION AND A PROPRIETARY PROBIOTIC BLEND” (U.S. NUTRACEUTICALS, LLC d/b/a Valensa International, priority 2008, published 2014).

Experiments:
[1] = tested on: Salmonella enteritidis
[2] = tested on: Bacillus subtilis
[3] = tested on: Escherichia coli
[4] = tested on: Salmonella typhimurium
[5] = tested on: Clostridium perfringens
[6] = tested on: Staphylococcus aureus

Measured: antibacterial activity

acidophilin
demonstrated activity: all assays above
